Publication PMC7403138 (Clinical Pharmacokinetics, 2020)

Experiment: Population pharmacokinetic analysis
Assay type: in vivo, human

| SMILES | FRator-oOH (base PK model) [%] | between-subject variability on CLator (base PK model, CV%) [%] | between-subject variability on FRator-oOH (base PK model, CV%) [%] | between-subject variability on Vcator=Vcmet (base PK model, CV%) [%] | decrease in logit(FRator-oOH) (coadministration of boosted ARVs) [%] | central volume of distribution of atorvastatin and o-OH-atorvastatin (Vcator=Vcmet) (base PK model) [L] | metabolite clearance (CLo-OH-ator) (base PK model) [L/h] | o-OH-atorvastatin formed slower (presence vs absence of boosted ARVs, full dataset) [%] |
| --- | --- | --- | --- | --- | --- | --- | --- | --- |
| CC(C)c1c(C(=O)Nc2ccccc2)c(-c2ccccc2)c(-c2ccc(F)cc2)n1CC[C@@H](O)C[C@@H](O)CC(=O)O [atorvastatin] | 11 | 94 | 131 | 137 | 225 | – | – | – |
| CC(C)c1c(C(=O)Nc2ccccc2O)c(-c2ccccc2)c(-c2ccc(F)cc2)n1CC[C@@H](O)C[C@@H](O)CC(=O)O [o-OH-atorvastatin, ortho-hydroxy atorvastatin] | – | – | – | – | – | 3170 | 118 | 88 |
